From patent US8052961B2, “Highly fluorinated β-amino acids and methods of making and using same” (University of Utah Foundation, priority 2006, dated 2011)

Experiments:
[1] = 1-octanol/water partition coefficient (Poct) of tripeptides
Experimental: The 1-octanol/water partition coefficients (Poct) of the two tripeptides were evaluated.
To 20 mg of peptide 4 or 5 were added 2 mL of water and 2 mL of 1-octanol. The resulting mixture was shaken with a mixer for 10 min. After the aqueous and the organic phases were fully separated, 50 μL of solution was taken out from each phase for HPLC analysis. To a mixture of 200 μL aqueous solution and 200 μL 1-octanol solution were added 1.8 mL of water and 1.8 mL of 1-octanol. The resulting mixture was shaken with a mixer for 10 min. After the phases were fully separated, 50 μL of solution was taken out from each phase for reversed-phases HPLC analysis.

[2] = cited from earlier work

Compound	melting point	other results
NCC(COC(C(F)(F)F)(C(F)(F)F)C(F)(F)F)(COC(C(F)(F)F)(C(F)(F)F)C(F)(F)F)C(=O)O	182 to 184 °C	
O=C(NCC(COC(C(F)(F)F)(C(F)(F)F)C(F)(F)F)(COC(C(F)(F)F)(C(F)(F)F)C(F)(F)F)C(=O)O)OCC1c2ccccc2-c2ccccc21	104 to 105 °C	
CC(C)(C)OC(=O)NCC(COC(C(F)(F)F)(C(F)(F)F)C(F)(F)F)(COC(C(F)(F)F)(C(F)(F)F)C(F)(F)F)C(=O)O	128 to 130 °C	
NC(=O)CNC(=O)C(CNC(=O)CNC=O)(COC(C(F)(F)F)(C(F)(F)F)C(F)(F)F)COC(C(F)(F)F)(C(F)(F)F)C(F)(F)F [tripeptide 4, Formyl-Gly-βFa-Gly-Amide]		logP at 10 min [1]: > 1
octreotide		in vivo half-life (t1/2) [2]: 2 h
